Drawing on the supplement of paper PMC10307832, this text covers relative viability for 5 compounds.

In one assay the test system is NCI-H2126. The experiment in a line: relative viability (nuclei count vs DMSO), 5 days (fraction); higher = more cells survive. As to conditions: first compound 2 µM. The method in brief: (§1)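 Nuclei were stained with Hoechst during a one-step fixation (final 0.05% Triton X-100, 1% formaldehyde, 1 ug/ml Hoechst) carried out 5 days after dosing, then counted on 4× images. The cells, lung cancer lines in 1536-well plates, had been dosed by pin tool the day after seeding with one drug alone or a fixed anchor-drug dose plus five library-drug doses (not always all listed) in √10 steps. Relative viability is the nuclei count in treated wells divided by that in vehicle wells, and each value is the median of duplicate plates.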
Consider `COCC1(CO)C(=O)C2CCN1CC2` (stereo unspecified) [PRIMA-1MET] + COc1cc2c(Oc3ccc(NC(=O)C4(C(=O)Nc5ccc(F)cc5)CC4)cc3F)ccnc2cc1OCCCN1CCOCC1 [Foretinib] (partner 0.25 µM), for which the relative viability came to 1.22.

On to `COCC1(CO)C(=O)C2CCN1CC2` (stereo unspecified) [PRIMA-1MET] + Cc1nc(NC(=O)N2CCC[C@H]2C(N)=O)sc1-c1ccnc(C(C)(C)C(F)(F)F)c1 [Alpelisib] (partner 2 µM), for which the relative viability was found to be 0.743.

The same assay, now with this note: first compound 6.325 µM.
On to `COCC1(CO)C(=O)C2CCN1CC2` (stereo unspecified) [PRIMA-1MET] + CS(=O)(=O)N1CCN(Cc2cc3nc(-c4cccc5[nH]ncc45)nc(N4CCOCC4)c3s2)CC1 [Pictilisib] (partner 1 µM), for which the relative viability was found to be 0.548.

`COCC1(CO)C(=O)C2CCN1CC2` (stereo unspecified) [PRIMA-1MET] + CS(=O)(=O)CCNCc1ccc(-c2ccc3ncnc(Nc4ccc(OCc5cccc(F)c5)c(Cl)c4)c3c2)o1 [Lapatinib] (partner 2 µM): the relative viability was determined as 0.815.

In the case of `COCC1(CO)C(=O)C2CCN1CC2` (stereo unspecified) [PRIMA-1MET] + C[C@]1(O)C[C@@H](c2nc(-c3ccc4ccc(-c5ccccc5)nc4c3)c3c(N)nccn32)C1 [Linsitinib] (partner 1 µM), the relative viability was 0.732.

For the compound `COCC1(CO)C(=O)C2CCN1CC2` (stereo unspecified) [PRIMA-1MET] + COc1cc2c(Oc3ccc(NC(=O)C4(C(=O)Nc5ccc(F)cc5)CC4)cc3F)ccnc2cc1OCCCN1CCOCC1 [Foretinib] (partner 0.25 µM), the relative viability was 1.23.

On to `COCC1(CO)C(=O)C2CCN1CC2` (stereo unspecified) [PRIMA-1MET] + Cc1nc(NC(=O)N2CCC[C@H]2C(N)=O)sc1-c1ccnc(C(C)(C)C(F)(F)F)c1 [Alpelisib] (partner 2 µM), for which the relative viability was 0.848.

The assay is the same for the next values; noted with them: first compound 20 µM.
In turn, `COCC1(CO)C(=O)C2CCN1CC2` (stereo unspecified) [PRIMA-1MET] + CS(=O)(=O)N1CCN(Cc2cc3nc(-c4cccc5[nH]ncc45)nc(N4CCOCC4)c3s2)CC1 [Pictilisib] (partner 1 µM) registered a relative viability of 0.488.

For the compound `COCC1(CO)C(=O)C2CCN1CC2` (stereo unspecified) [PRIMA-1MET] + CS(=O)(=O)CCNCc1ccc(-c2ccc3ncnc(Nc4ccc(OCc5cccc(F)c5)c(Cl)c4)c3c2)o1 [Lapatinib] (partner 2 µM), the relative viability amounted to 0.773.

`COCC1(CO)C(=O)C2CCN1CC2` (stereo unspecified) [PRIMA-1MET] + C[C@]1(O)C[C@@H](c2nc(-c3ccc4ccc(-c5ccccc5)nc4c3)c3c(N)nccn32)C1 [Linsitinib] (partner 1 µM) returned a relative viability of 0.67.

`COCC1(CO)C(=O)C2CCN1CC2` (stereo unspecified) [PRIMA-1MET] + COc1cc2c(Oc3ccc(NC(=O)C4(C(=O)Nc5ccc(F)cc5)CC4)cc3F)ccnc2cc1OCCCN1CCOCC1 [Foretinib] (partner 0.25 µM) came in with a relative viability of 1.13.

Compound `COCC1(CO)C(=O)C2CCN1CC2` (stereo unspecified) [PRIMA-1MET] + Cc1nc(NC(=O)N2CCC[C@H]2C(N)=O)sc1-c1ccnc(C(C)(C)C(F)(F)F)c1 [Alpelisib] (partner 2 µM) showed a relative viability of 0.706.

The next assay relates to NCI-H2170. The description is as above. As to conditions: first compound 0.2 µM. The method in brief:
as §1
In the case of `COCC1(CO)C(=O)C2CCN1CC2` (stereo unspecified) [PRIMA-1MET] + CS(=O)(=O)N1CCN(Cc2cc3nc(-c4cccc5[nH]ncc45)nc(N4CCOCC4)c3s2)CC1 [Pictilisib] (partner 1 µM), the relative viability was determined as 0.312.

With `COCC1(CO)C(=O)C2CCN1CC2` (stereo unspecified) [PRIMA-1MET] + CS(=O)(=O)CCNCc1ccc(-c2ccc3ncnc(Nc4ccc(OCc5cccc(F)c5)c(Cl)c4)c3c2)o1 [Lapatinib] (partner 2 µM), the relative viability is 0.263.

`COCC1(CO)C(=O)C2CCN1CC2` (stereo unspecified) [PRIMA-1MET] + COc1cc2c(Oc3ccc(NC(=O)C4(C(=O)Nc5ccc(F)cc5)CC4)cc3F)ccnc2cc1OCCCN1CCOCC1 [Foretinib] (partner 0.25 µM) had a relative viability of 1.04.

With `COCC1(CO)C(=O)C2CCN1CC2` (stereo unspecified) [PRIMA-1MET] + Cc1nc(NC(=O)N2CCC[C@H]2C(N)=O)sc1-c1ccnc(C(C)(C)C(F)(F)F)c1 [Alpelisib] (partner 2 µM), the relative viability worked out at 0.889.

Staying with this assay, now noted: first compound 0.6325 µM.
For the compound `COCC1(CO)C(=O)C2CCN1CC2` (stereo unspecified) [PRIMA-1MET] + CS(=O)(=O)N1CCN(Cc2cc3nc(-c4cccc5[nH]ncc45)nc(N4CCOCC4)c3s2)CC1 [Pictilisib] (partner 1 µM), the relative viability turned out to be 0.276.

Compound `COCC1(CO)C(=O)C2CCN1CC2` (stereo unspecified) [PRIMA-1MET] + CS(=O)(=O)CCNCc1ccc(-c2ccc3ncnc(Nc4ccc(OCc5cccc(F)c5)c(Cl)c4)c3c2)o1 [Lapatinib] (partner 2 µM) came in with a relative viability of 0.236.

Compound `COCC1(CO)C(=O)C2CCN1CC2` (stereo unspecified) [PRIMA-1MET] + COc1cc2c(Oc3ccc(NC(=O)C4(C(=O)Nc5ccc(F)cc5)CC4)cc3F)ccnc2cc1OCCCN1CCOCC1 [Foretinib] (partner 0.25 µM) returned a relative viability of 0.921.

As to `COCC1(CO)C(=O)C2CCN1CC2` (stereo unspecified) [PRIMA-1MET] + Cc1nc(NC(=O)N2CCC[C@H]2C(N)=O)sc1-c1ccnc(C(C)(C)C(F)(F)F)c1 [Alpelisib] (partner 2 µM), the relative viability came to 0.749.

The same assay, now with this note: first compound 2 µM.
In turn, `COCC1(CO)C(=O)C2CCN1CC2` (stereo unspecified) [PRIMA-1MET] + CS(=O)(=O)N1CCN(Cc2cc3nc(-c4cccc5[nH]ncc45)nc(N4CCOCC4)c3s2)CC1 [Pictilisib] (partner 1 µM) came in with a relative viability of 0.283.

In turn, `COCC1(CO)C(=O)C2CCN1CC2` (stereo unspecified) [PRIMA-1MET] + CS(=O)(=O)CCNCc1ccc(-c2ccc3ncnc(Nc4ccc(OCc5cccc(F)c5)c(Cl)c4)c3c2)o1 [Lapatinib] (partner 2 µM) showed a relative viability of 0.237.

Take `COCC1(CO)C(=O)C2CCN1CC2` (stereo unspecified) [PRIMA-1MET] + COc1cc2c(Oc3ccc(NC(=O)C4(C(=O)Nc5ccc(F)cc5)CC4)cc3F)ccnc2cc1OCCCN1CCOCC1 [Foretinib] (partner 0.25 µM): the relative viability is 0.945.

For `COCC1(CO)C(=O)C2CCN1CC2` (stereo unspecified) [PRIMA-1MET] + Cc1nc(NC(=O)N2CCC[C@H]2C(N)=O)sc1-c1ccnc(C(C)(C)C(F)(F)F)c1 [Alpelisib] (partner 2 µM), the relative viability stood at 0.864.

The same assay, now with this note: first compound 6.325 µM.
`COCC1(CO)C(=O)C2CCN1CC2` (stereo unspecified) [PRIMA-1MET] + CS(=O)(=O)N1CCN(Cc2cc3nc(-c4cccc5[nH]ncc45)nc(N4CCOCC4)c3s2)CC1 [Pictilisib] (partner 1 µM) came in with a relative viability of 0.336.

Consider `COCC1(CO)C(=O)C2CCN1CC2` (stereo unspecified) [PRIMA-1MET] + CS(=O)(=O)CCNCc1ccc(-c2ccc3ncnc(Nc4ccc(OCc5cccc(F)c5)c(Cl)c4)c3c2)o1 [Lapatinib] (partner 2 µM), for which the relative viability was 0.276.

Take `COCC1(CO)C(=O)C2CCN1CC2` (stereo unspecified) [PRIMA-1MET] + COc1cc2c(Oc3ccc(NC(=O)C4(C(=O)Nc5ccc(F)cc5)CC4)cc3F)ccnc2cc1OCCCN1CCOCC1 [Foretinib] (partner 0.25 µM): the relative viability stood at 1.01.

`COCC1(CO)C(=O)C2CCN1CC2` (stereo unspecified) [PRIMA-1MET] + Cc1nc(NC(=O)N2CCC[C@H]2C(N)=O)sc1-c1ccnc(C(C)(C)C(F)(F)F)c1 [Alpelisib] (partner 2 µM) gave a relative viability of 0.847.

Staying with this assay, now noted: first compound 20 µM.
On to `COCC1(CO)C(=O)C2CCN1CC2` (stereo unspecified) [PRIMA-1MET] + CS(=O)(=O)N1CCN(Cc2cc3nc(-c4cccc5[nH]ncc45)nc(N4CCOCC4)c3s2)CC1 [Pictilisib] (partner 1 µM), for which the relative viability is 0.297.

In the case of `COCC1(CO)C(=O)C2CCN1CC2` (stereo unspecified) [PRIMA-1MET] + CS(=O)(=O)CCNCc1ccc(-c2ccc3ncnc(Nc4ccc(OCc5cccc(F)c5)c(Cl)c4)c3c2)o1 [Lapatinib] (partner 2 µM), the relative viability stood at 0.273.

As for `COCC1(CO)C(=O)C2CCN1CC2` (stereo unspecified) [PRIMA-1MET] + COc1cc2c(Oc3ccc(NC(=O)C4(C(=O)Nc5ccc(F)cc5)CC4)cc3F)ccnc2cc1OCCCN1CCOCC1 [Foretinib] (partner 0.25 µM), the relative viability came out at 0.94.
